For assay [1], the target named is T1, SARS-CoV-2 PLpro (nsp3 1564–1878) (Severe acute respiratory syndrome coronavirus 2, UniProt P0DTD1). Description: biochemical. On the set-up: FRET-quenched peptide (Pro3) cleavage by PLpro, 10 min pre-incubation, slope over 20 min, normalised to no-compound control. Particulars: high concentration screen, read-out: % of control remaining.
In assay [2] the target is T1, SARS-CoV-2 PLpro (nsp3 1564–1878). Description: biochemical. Set-up: FRET-quenched peptide (Pro3) cleavage by PLpro, 10 min pre-incubation, slope over 20 min, normalised to no-compound control. To be noted: low concentration screen, read-out: % of control remaining.

Each structure is given as a SMILES string. Structures can show the parent of a compound that is named as a salt. Where two headings read alike, the source gives them in different places.

With `CC(C)(C)C(=O)C(Oc1ccc(Cl)cc1)n1ccnc1` (stereo not drawn) [Climbazole], in assay [1] (Well no.=2269), the remaining activity at 3.75 µM stood at 99.5%. For the same compound, the remaining activity at 1.25 µM in assay [2] (Well no.=2269) came to 98.8%.

As for `NC1CCN(c2c(F)cc3c(=O)c(C(=O)O)cn(C4CC4)c3c2Cl)C1` (stereo not drawn) [Clinafloxacin], the remaining activity at 3.75 µM in assay [1] (Well no.=2271) was 96.8%. In addition, in assay [2] (Well no.=2271), the remaining activity at 1.25 µM is 93.2%.

`CCCCCCCCCCCCCCCC(=O)O[C@@H]1[C@@H](O)[C@@H](O)[C@@H]([C@H](NC(=O)[C@@H]2C[C@@H](CCC)CN2C)[C@H](C)Cl)O[C@@H]1SC` [Clindamycin palmitate.HCl]: in assay [1] (Well no.=1864), the remaining activity at 3.75 µM is 102%. The remaining activity at 1.25 µM in assay [2] (Well no.=1864) is 100%.

Turning to `CCC[C@@H]1C[C@@H](C(=O)N[C@@H]([C@H]2O[C@H](SC)[C@H](OP(=O)(O)O)[C@@H](O)[C@H]2O)[C@H](C)Cl)N(C)C1` [Clindamycin phosphate], in assay [1] (Well no.=5052), the remaining activity at 3.75 µM is 104%. Also, the remaining activity at 1.25 µM in assay [2] (Well no.=5052) is 105%.

In the case of `CCC(C)(Oc1ccc(C2(c3ccc(OC(C)(CC)C(=O)O)cc3)CCCCC2)cc1)C(=O)O` (stereo not drawn) [Clinofibrate], the remaining activity at 3.75 µM in assay [1] (Well no.=5332) was 98.1%. For the same compound, the remaining activity at 1.25 µM in assay [2] (Well no.=5332) is 96.6%.

For the compound `CCC(=O)O[C@]1(C(=O)CCl)[C@@H](C)C[C@H]2[C@@H]3CCC4=CC(=O)C=C[C@]4(C)[C@@]3(F)[C@@H](O)C[C@@]21C` [Clobetasol propionate], the remaining activity at 3.75 µM in assay [1] (Well no.=1924) was 99.3%; in assay [1] (Well no.=8301), 89.7%. The remaining activity at 1.25 µM came to 98.4% in assay [2] (Well no.=1924) and 95.3% in assay [2] (Well no.=8301).

In the case of `O=P(O)(O)C(Cl)(Cl)P(=O)(O)O` [Clodronic acid], the remaining activity at 3.75 µM in assay [1] (Well no.=737) was 96.9%; in assay [1] (Well no.=1862), 90.7%. The remaining activity at 1.25 µM worked out at 95.6% in assay [2] (Well no.=737) and 92.6% in assay [2] (Well no.=1862).

Turning to `Nc1nc(Cl)nc2c1ncn2[C@@H]1O[C@H](CO)[C@@H](O)[C@@H]1F` [Clofarabine], the remaining activity at 3.75 µM is 103% in assay [1] (Well no.=1927) and 97.4% in assay [1] (Well no.=8004). Further, the remaining activity at 1.25 µM came to 103% in assay [2] (Well no.=1927) and 98.8% in assay [2] (Well no.=8004).

On to `CC(C)/N=c1\cc2n(-c3ccc(Cl)cc3)c3ccccc3nc-2cc1Nc1ccc(Cl)cc1` [Clofazimine], for which the remaining activity at 3.75 µM in assay [1] (Well no.=5649) was found to be 100%. Besides, in assay [2] (Well no.=5649), the remaining activity at 1.25 µM amounted to 101%.

Turning to `CCOC(=O)C(C)(C)Oc1ccc(Cl)cc1` [Clofibrate], the results for the remaining activity at 3.75 µM in assay [1] (Well no.=326), in assay [1] (Well no.=1899) and in assay [1] (Well no.=4468) were 94.8%, 94% and 99.4%, respectively. For the same compound, the remaining activity at 1.25 µM in assay [2] (Well no.=326) was 94.4%; in assay [2] (Well no.=1899) it was 94.1%; in assay [2] (Well no.=4468) it was 93.7%.

Regarding `CC(C)(Oc1ccc(Cl)cc1)C(=O)O` [Clofibric Acid], in assay [1] (Well no.=8394), the remaining activity at 3.75 µM amounted to 81.1%. Moreover, in assay [2] (Well no.=8394), the remaining activity at 1.25 µM is 87%.

For the compound `CCCCCCC[N+](CC)(CC)CCCCc1ccc(Cl)cc1` [Clofilium tosylate], the remaining activity at 3.75 µM in assay [1] (Well no.=6882) is 90.5%. The remaining activity at 1.25 µM in assay [2] (Well no.=6882) amounted to 91.1%.

Consider `CCN(CC)CCOc1ccc(C(=C(Cl)c2ccccc2)c2ccccc2)cc1` [Clomiphene], for which the remaining activity at 3.75 µM in assay [1] (Well no.=2273) is 96.3%. Moreover, the remaining activity at 1.25 µM in assay [2] (Well no.=2273) is 96.5%.

For `CN(C)CCCN1c2ccccc2CCc2ccc(Cl)cc21` [Clomipramine hydrochloride], the remaining activity at 3.75 µM in assay [1] (Well no.=328) amounted to 98.6%. In addition, the remaining activity at 1.25 µM in assay [2] (Well no.=328) is 101%.

In the case of `Clc1cccc(Cl)c1NC1=NCCN1` [Clonidine (hydrochloride)], the remaining activity at 3.75 µM in assay [1] (Well no.=6755) was determined as 98.3%. Also, in assay [2] (Well no.=6755), the remaining activity at 1.25 µM was found to be 99.8%.

With `Clc1cccc(Cl)c1NC1=NCCN1` [Clonidine hydrochloride], the remaining activity at 3.75 µM in assay [1] (Well no.=138) stood at 98.8%. In assay [2] (Well no.=138), the remaining activity at 1.25 µM came to 95.3%.

Take `Clc1cccc(Cl)c1NC1=NCCN1` [Clonidine.HCl]: the remaining activity at 3.75 µM in assay [1] (Well no.=1691) worked out at 94.2%. The remaining activity at 1.25 µM in assay [2] (Well no.=1691) was found to be 96%.

Take `C[C@@H]1CCC[C@H](C)N1NC(=O)c1ccc(Cl)c(S(N)(=O)=O)c1` [Clopamide]: the remaining activity at 3.75 µM in assay [1] (Well no.=1773) came out at 93.8%. In addition, the remaining activity at 1.25 µM in assay [2] (Well no.=1773) is 96%.

Turning to `COC(=O)[C@H](c1ccccc1Cl)N1CCc2sccc2C1` [Clopidogrel (hydrogen sulfate)], the remaining activity at 3.75 µM in assay [1] (Well no.=7563) was found to be 96.5%; in assay [1] (Well no.=7926), 98.2%. Moreover, the remaining activity at 1.25 µM in assay [2] (Well no.=7563) is 95.7%; in assay [2] (Well no.=7926), 95.8%.

With `COC(=O)[C@H](c1ccccc1Cl)N1CCC2SC(=O)C=C2C1` (stereo partly drawn) [Clopidogrel thiolactone], the remaining activity at 3.75 µM in assay [1] (Well no.=8562) was determined as 95.5%. In addition, the remaining activity at 1.25 µM in assay [2] (Well no.=8562) was determined as 95.8%.

Consider `COC(=O)[C@H](c1ccccc1Cl)N1CCc2sccc2C1` [Clopidogrel], for which the remaining activity at 3.75 µM in assay [1] (Well no.=2277) came out at 93%. Further, in assay [2] (Well no.=2277), the remaining activity at 1.25 µM turned out to be 90.2%.

As for `C#CCN(C)CCCOc1ccc(Cl)cc1Cl` [Clorgyline hydrochloride], the remaining activity at 3.75 µM in assay [1] (Well no.=878) amounted to 102%. For the same compound, in assay [2] (Well no.=878), the remaining activity at 1.25 µM is 101%.

Take `Nc1cc(C(Cl)=C(Cl)Cl)c(S(N)(=O)=O)cc1S(N)(=O)=O` [Clorsulon]: the values for the remaining activity at 3.75 µM in assay [1] (Well no.=5298) and in assay [1] (Well no.=7310) were 87.7% and 97.7%, respectively. Moreover, the remaining activity at 1.25 µM in assay [2] (Well no.=5298) was 87.3%; in assay [2] (Well no.=7310) it was 99.9%.

Regarding `CN1CCN(C2=Nc3ccccc3Sc3ccc(Cl)cc32)CC1` [Clothiapine], the remaining activity at 3.75 µM in assay [1] (Well no.=1815) was 99.6%. Also, in assay [2] (Well no.=1815), the remaining activity at 1.25 µM stood at 102%.

For the compound `Clc1ccccc1C(c1ccccc1)(c1ccccc1)n1ccnc1` [Clotrimazole], the remaining activity at 3.75 µM in assay [1] (Well no.=372) was 99.9%. Besides, the remaining activity at 1.25 µM in assay [2] (Well no.=372) was determined as 97.9%.

Regarding `Cc1onc(-c2ccccc2Cl)c1C(=O)N[C@@H]1C(=O)N2[C@@H]1SC(C)(C)[C@@H]2C(=O)O` [Cloxacillin (sodium monohydrate)], in assay [1] (Well no.=7556), the remaining activity at 3.75 µM was 103%. The remaining activity at 1.25 µM in assay [2] (Well no.=7556) was 101%.

As for `CN1CCN(C2=Nc3cc(Cl)ccc3Nc3ccccc32)CC1` [Clozapine], the remaining activity at 3.75 µM in assay [1] (Well no.=182) came to 96.2%; in assay [1] (Well no.=1813), 95.3%; in assay [1] (Well no.=6569), 97.3%. Moreover, the values for the remaining activity at 1.25 µM in assay [2] (Well no.=182), in assay [2] (Well no.=1813) and in assay [2] (Well no.=6569) were 99.6%, 98.4% and 98.5%, respectively.

For the origin of these results see paper PMC8286840, “Identifying SARS-CoV-2 antiviral compounds by screening for small molecule inhibitors of Nsp3 papain-like protease” (Biochemical Journal, 2021).
